Assays:
Conditions in all cases: 72 h
Vero E6 [1] = assay: drug sensitivity score (DSS) for viability; higher = more toxic; extreme values may be limits of the assay
U2OS [2] = assay: as above
HepG2 [3] = assay: as above
Caco-2 [4] = assay: as above
Vero E6 [5] = assay: relative viability EC50 (midpoint between 100% and the lowest measured viability); higher = less toxic
U2OS [6] = assay: as above
HepG2 [7] = assay: as above
Caco-2 [8] = assay: as above
Vero E6 [9] = assay: cell viability relative to DMSO; higher = less toxic
U2OS [10] = assay: as above
HepG2 [11] = assay: as above
Caco-2 [12] = assay: as above
Calu-3 [13] = assay: drug sensitivity score (DSS) for viability; higher = more toxic; extreme values may be limits of the assay
Calu-3 [14] = assay: relative viability EC50 (midpoint between 100% and the lowest measured viability); higher = less toxic
Calu-3 [15] = assay: cell viability relative to DMSO; higher = less toxic

Row | SMILES | drug sensitivity score (Vero E6 [1]) | drug sensitivity score (U2OS [2]) | drug sensitivity score (HepG2 [3]) | drug sensitivity score (Caco-2 [4]) | relative viability EC50 (Vero E6 [5]) [µM] | relative viability EC50 (U2OS [6]) [µM] | relative viability EC50 (HepG2 [7]) [µM] | relative viability EC50 (Caco-2 [8]) [µM] | cell viability (Vero E6 [9]; 1 nM) [%] | cell viability (Vero E6 [9]; 10 nM) [%] | cell viability (Vero E6 [9]; 100 nM) [%] | cell viability (Vero E6 [9]; 1000 nM) [%] | cell viability (Vero E6 [9]; 10000 nM) [%] | cell viability (U2OS [10]; 1 nM) [%] | cell viability (U2OS [10]; 10 nM) [%] | cell viability (U2OS [10]; 100 nM) [%] | cell viability (U2OS [10]; 1000 nM) [%] | cell viability (U2OS [10]; 10000 nM) [%] | cell viability (HepG2 [11]; 1 nM) [%] | cell viability (HepG2 [11]; 10 nM) [%] | cell viability (HepG2 [11]; 100 nM) [%] | cell viability (HepG2 [11]; 1000 nM) [%] | cell viability (HepG2 [11]; 10000 nM) [%] | cell viability (Caco-2 [12]; 1 nM) [%] | cell viability (Caco-2 [12]; 10 nM) [%] | cell viability (Caco-2 [12]; 100 nM) [%] | cell viability (Caco-2 [12]; 1000 nM) [%] | cell viability (Caco-2 [12]; 10000 nM) [%] | drug sensitivity score (Calu-3 [13]) | relative viability EC50 (Calu-3 [14]) [µM] | cell viability (Calu-3 [15]; 1 nM) [%] | cell viability (Calu-3 [15]; 10 nM) [%] | cell viability (Calu-3 [15]; 100 nM) [%] | cell viability (Calu-3 [15]; 1000 nM) [%] | cell viability (Calu-3 [15]; 10000 nM) [%]
1 | O=C(O)CN1C(=O)c2cccc3cccc(c23)C1=O [alrestatin] | 0 | 0 | 0 | 0 | > 10 | > 10 | > 10 | > 10 | 94.8 | 102 | 105 | 96.6 | 101 | 98.9 | 96.6 | 96.1 | 102 | 105 | 95.4 | 102 | 90.7 | 98 | 101 | 99 | 95.2 | 101 | 96.7 | 107 | – | – | – | – | – | – | –
2 | OC[C@H]1O[C@@H](Oc2ccc(O)cc2)[C@H](O)[C@@H](O)[C@@H]1O [arbutin] | 0 | 0 | 0 | 0 | > 10 | > 10 | > 10 | > 10 | 98.6 | 98 | 91.6 | 94.6 | 94.5 | 97.9 | 102 | 102 | 97.5 | 108 | 99.2 | 109 | 98.6 | 105 | 103 | 95.7 | 101 | 105 | 96 | 103 | – | – | – | – | – | – | –
3 | Cc1ccc(C)c([C@H](O)CNC(C)C)c1 [benzenemethanol,-2,5-dimethyl-[[(1-methylethyl)amino]methyl]] | 0 | 0 | 0 | 0 | > 10 | > 10 | > 10 | > 10 | 103 | 107 | 98.4 | 103 | 101 | 101 | 99.4 | 102 | 99.2 | 102 | 111 | 92.6 | 101 | 100 | 104 | 102 | 96.3 | 92.6 | 93.7 | 96.3 | – | – | – | – | – | – | –
4 | O=C(Cn1ccnc1[N+](=O)[O-])NCc1ccccc1 [benznidazole] | 0 | 0 | 0 | 0 | > 10 | > 10 | > 10 | > 10 | 97.3 | 98.5 | 96.4 | 101 | 98.1 | 98 | 97.3 | 92.4 | 90 | 99.8 | 97.3 | 95.9 | 93.7 | 94.4 | 94.2 | 98 | 98.8 | 96.4 | 93.2 | 96 | – | – | – | – | – | – | –
5 | CC(=O)O[C@]1(C(C)=O)CC[C@H]2[C@@H]3C=C(Cl)C4=CC(=O)CC[C@]4(C)[C@H]3CC[C@@]21C [chlormadinone-acetate] | 0 | 0 | 0 | 0 | > 10 | > 10 | > 10 | > 10 | 93.2 | 96.9 | 91.9 | 92.5 | 90 | 97.2 | 92.7 | 96.1 | 90.6 | 95 | 98.1 | 98.8 | 100 | 92 | 112 | 101 | 106 | 115 | 98.8 | 103 | – | – | – | – | – | – | –
6 | C[N+]12CCC(CC1)C(OC(=O)C(O)(c1ccccc1)c1ccccc1)C2 (centres undefined) [clidinium] | 0 | – | 0 | 0 | > 10 | – | > 10 | > 10 | 102 | 102 | 101 | 102 | 99.8 | – | – | – | – | – | 92.5 | 108 | 90.6 | 104 | 99.7 | 102 | 112 | 106 | 95.4 | 103 | – | – | – | – | – | – | –
7 | CC(C)/N=c1\cc2n(-c3ccc(Cl)cc3)c3ccccc3nc-2cc1Nc1ccc(Cl)cc1 [clofazimine] | 0 | 0 | 1.9 | 3.8 | > 10 | > 10 | – | – | 101 | 99.6 | 103 | 104 | 91.3 | 98 | 100 | 101 | 98.1 | 91.6 | 94.1 | 105 | 89.8 | 97 | 68.3 | 106 | 101 | 98.3 | 84.5 | 60.4 | 0 | > 10 | 101 | 97.6 | 91.3 | 98.1 | 94.4
8 | CN(C)CCOC(=O)C(c1ccccc1)C1(O)CCCC1 (centres undefined) [cyclopentolate] | 0 | 0 | 0 | 0 | > 10 | > 10 | > 10 | > 10 | 99.1 | 103 | 102 | 101 | 107 | 100 | 96.5 | 98.4 | 97.9 | 98.5 | 103 | 115 | 97.6 | 111 | 91.3 | 96.9 | 97.6 | 93 | 100 | 102 | – | – | – | – | – | – | –
9 | Oc1cc(O)c2cc(O)c(-c3cc(O)c(O)c(O)c3)[o+]c2c1 [delphinidin] | 0 | 0 | 0 | 0.5 | > 10 | > 10 | > 10 | > 10 | 100 | 98.8 | 98.3 | 92.7 | 97.9 | 103 | 104 | 98.1 | 102 | 99.2 | 104 | 102 | 103 | 114 | 96.5 | 101 | 95.5 | 90.8 | 94.6 | 83.4 | – | – | – | – | – | – | –
10 | COc1ccc(CN(CCN(C)C)c2ccccn2)cc1 [mepyramine] | 0 | 0 | 0 | – | > 10 | > 10 | > 10 | – | 95.7 | 93.1 | 95.1 | 98.5 | 102 | 98 | 99.8 | 103 | 101 | 95.9 | 99.8 | 95.7 | 91 | 102 | 92.8 | – | – | – | – | – | 0 | > 10 | 101 | 113 | 112 | 106 | 93
11 | CCCOc1ccc(S(=O)(=O)N2CCN(CCO)CC2)cc1-c1nc2c(CCC)cn(CC)c2c(=O)[nH]1 [mirodenafil] | 0 | 0 | 0 | 0.1 | > 10 | > 10 | > 10 | > 10 | 100 | 101 | 101 | 94.9 | 102 | 102 | 104 | 99.6 | 103 | 96.3 | 105 | 98.1 | 108 | 100 | 99.7 | 105 | 111 | 96.5 | 107 | 85.6 | – | – | – | – | – | – | –
12 | O=C(OCC(COC(=O)c1cccnc1)(COC(=O)c1cccnc1)COC(=O)c1cccnc1)c1cccnc1 [niceritrol] | 1.5 | 0 | 0 | 0 | – | > 10 | > 10 | > 10 | 92.6 | 103 | 96.8 | 96.9 | 73.8 | 102 | 104 | 101 | 101 | 98.8 | 93.7 | 94.1 | 92.7 | 98.2 | 101 | 93.9 | 88.4 | 92.7 | 93.3 | 86.9 | 0 | > 10 | 98.5 | 108 | 101 | 106 | 115
13 | CNCCC=C1c2ccccc2CCc2ccccc21 [nortriptyline] | 1.6 | 0 | 1 | 1.6 | > 10 | > 10 | – | – | 106 | 106 | 102 | 90 | 79.8 | 99.5 | 96.8 | 98.1 | 97.4 | 93.8 | 110 | 106 | 112 | 119 | 65 | 108 | 86.1 | 96.4 | 97.7 | 70 | 0.9 | > 10 | 100 | 98.7 | 99.4 | 96.5 | 82.1
14 | CCCCCCCCCCCCCCCCCCO [octadecan-1-ol] | 0 | – | – | – | > 10 | – | – | – | 99.2 | 103 | 102 | 94.2 | 107 | – | – | – | – | – | – | – | – | – | – | – | – | – | – | – | – | – | – | – | – | – | –
15 | C=CC(=O)Nc1cccc(Oc2nc(Nc3ccc(N4CCN(C)CC4)cc3)nc3ccsc23)c1 [olmutinib] | 6.5 | 3.2 | 2.6 | 3.2 | 2.49 | – | – | – | 100 | 98.7 | 96.7 | 92.2 | 5.1 | 100 | 101 | 96.6 | 92.7 | 59.4 | 95 | 93.5 | 100 | 99.6 | 51 | 99.2 | 98.3 | 90.9 | 83.5 | 69 | 8.3 | 1.35 | 110 | 105 | 89 | 68.4 | 14.8
16 | CN(C)CCN(Cc1ccccc1)c1ccccn1 [tripelennamine] | 0 | – | 1.8 | – | > 10 | – | > 10 | – | 110 | 110 | 105 | 102 | 97.1 | – | – | – | – | – | 108 | 111 | 101 | 89.7 | 78.9 | – | – | – | – | – | – | – | – | – | – | – | –
17 | N[C@@H]1[C@H]2CN(c3nc4c(cc3F)c(=O)c(C(=O)O)cn4-c3ccc(F)cc3F)C[C@@H]12 [trovafloxacin] | 0 | 0 | 3.4 | 3.1 | > 10 | > 10 | 3.6 | – | 95.7 | 98.8 | 102 | 110 | 98.2 | 101 | 108 | 99.8 | 105 | 89.9 | 115 | 104 | 102 | 106 | 29.9 | 95.6 | 122 | 84.7 | 85.5 | 71.5 | 2.1 | – | 102 | 103 | 92.4 | 97.6 | 64.1

Reference: the supplement of paper PMC13380429
